According to PMC9968064, “First Synthesis of DBU-Conjugated Cationic Carbohydrate Derivatives and Investigation of Their Antibacterial and Antifungal Activity” (International Journal of Molecular Sciences, 2023):
“Also recorded” adds a separate entry of the source.

Columns and labels:
Assay type in all cases: cell-based
[1] = tested on: HaCaT (human keratinocyte) cell line; test: MTT viability test on HaCaT cells; details: 24 h; for IC50: Homo sapiens, HaCaT, 50–3.125 µg/mL
Method: The cytotoxic effect of six selected compounds (3, 10, 12, 21, 22 and 29) with promising antimicrobial activity was studied on HaCaT (human keratinocyte) cell lines. Using the MTT-test, we determined the viability of the cells (Figure 3), and the half maximal inhibitory concentration (IC50) values of the compounds are summarized in Table 4. The duration of tests was 24 h; the examined concentrations were: 50–25–12.5–6.25–3.125 µg/mL. The IC50 value of a compound was defined as the concentration that inhibits cell growth by 50% relative to the control. […], the medium containing the inhibitor was removed, and 10 μL MTT solution was added to the cells. The plates were then incubated for two hours at 37 °C. The medium from the wells was then carefully aspirated, and MTT formazan dissolved with 100 μL of DMSO aided by gentle agitation on a shaker. After 10 min at room temperature, the absorbances were read at 570 nm by an automatic plate reader. The percentage of viability reflecting the respiratory potential of the cell population in each well was expressed as (absorbance of treated cells/absorbance of control cells) × 100. IC50 values of tested agents were determined by Graphpad (Prism) semi-log line fitting (graphpad.com (8)). The MTT test was performed after treatment and removal of inhibitors followed by the addition of 10 μL of MTT solution to the cells. We tested the toxic effect of compounds 3, 10, 12, 21, 22 and 29 on HaCaT cell line. HaCaT is a spontaneously transformed, aneuploid keratinocyte, an adherent cell type derived from the epithelium of Human […] adult skin. The cell line was immortalized in 1986 under low calcium and high-temperature conditions. Cells were cultured in DMEM medium (iBiotech, Szigetszentmiklós, Hungary) containing 10% fetal bovine serum (FBS, iBiotech, Szigetszentmiklós, Hungary) and 1% antibiotic-antimycotic mix (Penicillin–Streptomycin–Neomycin).

[2] = tested on: Escherichia coli (ATCC 8739); test: MIC determination (antibacterial susceptibility test, CLSI / Hungarian Pharmacopeia); details: for MIC: Escherichia coli, ATCC8739, tested range 6.25–100 µg/mL; for MIC Escherichia coli (ATCC 8739): tested range 6.25–100 µg/mL
Method: (§1) The antimicrobial activity of twenty-two cationic hexopyranoside-amidinium salts (3, 10, 11, 12, 21, 22, 23, 24, 29, 30, 32, 37, 38, 45, 46, 47, 48, 49, 50, 51, 52 and 53) were compared in susceptibility tests (Table 2). The effectiveness of all compounds was tested on Staphylococcus aureus ssp. aureus (ATCC 6538), Escherichia coli (ATCC 8739) and Candida albicans (ATCC 10231). We tested the antimicrobial activity of the compounds at the concentration range of 6.25–100 µg/mL.
(§2) The detection of the antibacterial and antifungal effects of the tested compounds and the determination of the minimum inhibitory concentration (MIC) were carried out based on the method of CLSI [48] and Hungarian Pharmacopeia (chapters VIII. 2.6.12–13.).
(§3) For the antimicrobial studies, we used three human pathogens as test organisms: Candida albicans (ATCC 10231), Staphylococcus aureus subspecies aureus (ATCC 6538) and Escherichia coli (ATCC 8739).
(§4) Staphylococcus aureus subspecies aureus and Escherichia coli were cultured on tryptic soya agar (TSA) for 18–24 h at 37 °C. Candida albicans was cultured on Sabouraud dextrose agar (SDA) for 18–24 h at 37 °C. To obtain cells for suspension, we made cell suspensions from Staph. aureus, E. coli and C. albicans with the cotton swab suspension technique. The dilution of suspension was then made with 0.85% NaCl solution, absorbance being set to A600nm = 0.06. a volume of 10 μL of these suspensions contained ~4.5–6.0 × 10^4 colony forming unit (CFU) (bacteria) and ~1.5–2.0 × 10^3 CFU for yeast.
(§5) Tested agents were diluted with DMSO; the concentration of stock solutions was 4 mg/mL; and to ensure sterility, the closed sample containers were incubated at 35 °C for 1 h. The highest final concentration was 100 μg/mL.
(§6) Testing was performed in 24-well plates, and cell suspensions were prepared with 0.85% NaCl solution. Stock solutions were made from the agents with DMSO (100%). Final concentrations of used compounds were 6.25–100 µg/mL. […] After inoculation, plates were incubated at 35 °C, and results were then read visually after 18–24 h. If microbial growth could not be detected, results were read visually after 72 h. If there was no growth after 72 h, incubation was continued till the fifth day of the experiment and the results were read visually and with plate reader at 600 nm after 120 h.
(§7) The MIC value of a compound was defined as the minimal concentration that inhibits the growth of bacteria and yeasts comparing to the control. The results of the antibacterial and antifungal tests were read visually after 24, 48, 72 and 120 h. The microbial growth was measured by plate reader at 600 nm after 120 h.

[3] = tested on: Staphylococcus aureus ssp. aureus (ATCC 6538); test: as above; details: for MIC: Staphylococcus aureus, ATCC6538, tested range 6.25–100 µg/mL; for MIC Staphylococcus aureus (ATCC 6538): tested range 6.25–100 µg/mL
Method: as §1, §2, §3, §4, §5, §6, §7

[4] = tested on: Candida albicans (ATCC 10231); test: MIC determination (antifungal susceptibility test); details: Candida albicans, ATCC10231, tested range 6.25–100 µg/mL; read-out: MIC Candida albicans (ATCC 10231)
Method: as §1, §2, §3, §4, §5
as §6, with “Final concentrations of used compounds were 6.25–100 µg/mL.” left out
as §7

| MIC [2] | MIC [3] | MIC [4] | MIC Escherichia coli (ATCC 8739) [2] | MIC Staphylococcus aureus (ATCC 6538) [3] | SMILES | cytotoxic effect on HaCaT cells (in words) [1] | IC50 [1] |
| --- | --- | --- | --- | --- | --- | --- | --- |
| > 100 µg/mL | 6.25 to 50 µg/mL | – | – | – | CO[C@H]1O[C@H](C[N+]2=C3CCCCCN3CCC2)[C@@H](OCc2ccccc2)[C@H](OC(=O)c2ccccc2)[C@H]1OC(=O)c1ccccc1 [Compound 3, 8-N-[methyl 6-deoxy-6-yl-2,3-di-O-benzoyl-4-O-benzyl-α-D-glucopyranoside]-1,8-diazabicyclo(5.4.0)undec-7-ene-iodide] | strongest cytotoxic effect | 0.13 ± 0.06 µg/mL |
| > 100 µg/mL | > 100 µg/mL | > 100 µg/mL | >100 µg/mL | >100 µg/mL | CCS[C@H]1O[C@H](C[N+]2=C3CCCCCN3CCC2)[C@@H](OCc2ccc3ccccc3c2)[C@H](OC(=O)c2ccccc2)[C@H]1OC(=O)c1ccccc1 [Compound 11] | – | – |
| > 100 µg/mL | < 6.25 µg/mL | – | – | – | CCS[C@H]1O[C@H](C[N+]2=C3CCCCCN3CCC2)[C@@H](OCc2ccc3ccccc3c2)[C@H](OC(=O)c2ccccc2)[C@H]1OCc1ccccc1 [Compound 12] | significant toxic effect; also recorded: cytotoxic | 4.26 ± 0.16 µg/mL |
| > 100 µg/mL | > 100 µg/mL | > 100 µg/mL | – | – | O=C(O[C@@H]1[C@H](OC(=O)c2ccccc2)[C@@H](Sc2ccccc2)O[C@H](C[N+]2=C3CCCCCN3CCC2)[C@H]1OCc1ccc2ccccc2c1)c1ccccc1 [Compound 23] | – | – |
| ≥ 100 µg/mL | 6.25 to 50 µg/mL | – | – | – | O=C(O[C@H]1[C@@H](OCc2ccccc2)[C@H](OCc2ccc3ccccc3c2)[C@@H](C[N+]2=C3CCCCCN3CCC2)O[C@@H]1Sc1ccccc1)c1ccccc1 [Compound 24] | – | – |
| ≥ 100 µg/mL | – | – | – | – | CCS[C@H]1O[C@H](C[N+]2=C3CCCCCN3CCC2)[C@@H](OCc2ccc3ccccc3c2)[C@@H](OC(=O)c2ccccc2)[C@H]1OC(=O)c1ccccc1 [Compound 30] | – | – |
| ≥ 100 µg/mL | 6.25 to 50 µg/mL | > 100 µg/mL | – | – | CCS[C@H]1O[C@H](C[N+]23CCN(CC2)CC3)[C@@H](OCc2ccc3ccccc3c2)[C@@H](OC(=O)c2ccccc2)[C@H]1OC(=O)c1ccccc1 [Compound 32] | – | – |
| > 100 µg/mL | – | > 100 µg/mL | – | – | c1ccc(CO[C@H]2[C@H](OCc3ccccc3)[C@@H](Sc3ccccc3)O[C@H](C[N+]3=C4CCCCCN4CCC3)[C@H]2OCc2ccc3ccccc3c2)cc1 [Compound 37] | – | – |
| > 100 µg/mL | > 100 µg/mL | > 100 µg/mL | >100 µg/mL | >100 µg/mL | O=C(O[C@H]1[C@H](OC(=O)c2ccccc2)[C@@H](Sc2ccccc2)O[C@H](C[N+]2=C3CCCCCN3CCC2)[C@H]1OCc1ccc2ccccc2c1)c1ccccc1 [Compound 38] | – | – |
| > 100 µg/mL | > 100 µg/mL | > 100 µg/mL | >100 µg/mL | >100 µg/mL | CO[C@H]1O[C@H](C[N+]2=C3CCCCCN3CCC2)[C@@H](OCc2ccccc2)[C@H](O)[C@H]1O [Compound 45, 8-N-[methyl 6-deoxy-6-yl-4-O-benzyl-α-D-glucopyranoside]-1,8-diazabicyclo(5.4.0)undec-7-ene-chloride] | – | – |
| > 100 µg/mL | > 100 µg/mL | > 100 µg/mL | >100 µg/mL | >100 µg/mL | CCS[C@H]1O[C@H](C[N+]2=C3CCCCCN3CCC2)[C@@H](OCc2ccc3ccccc3c2)[C@H](O)[C@H]1O [Compound 46, 8-N-[ethyl 6-deoxy-6-yl-4-O-(2′-naphthyl)methyl-1-thio-α-D-glucopyranoside]-1,8-diazabicyclo(5.4.0)undec-7-ene-chloride] | – | – |
| > 100 µg/mL | > 100 µg/mL | > 100 µg/mL | >100 µg/mL | >100 µg/mL | CCS[C@H]1O[C@H](C[N+]2=C3CCCCCN3CCC2)[C@@H](O)[C@H](O)[C@H]1O [Compound 47, 8-N-[ethyl 6-deoxy-6-yl-1-thio-α-D-glucopyranoside]-1,8-diazabicyclo(5.4.0)undec-7-ene-chloride] | – | – |
| > 100 µg/mL | – | – | – | – | CCS[C@H]1O[C@H](C[N+]2=C3CCCCCN3CCC2)[C@@H](O)[C@H](OCc2ccccc2)[C@H]1OCc1ccccc1 [Compound 48, 8-N-[ethyl 2,3-di-O-benzyl-6-deoxy-6-yl-1-thio-α-D-glucopyranoside]-1,8-diazabicyclo(5.4.0)undec-7-ene-chloride] | – | – |
| > 100 µg/mL | > 100 µg/mL | > 100 µg/mL | >100 µg/mL | >100 µg/mL | O[C@@H]1[C@H](OCc2ccccc2)[C@@H](Sc2ccccc2)O[C@H](C[N+]2=C3CCCCCN3CCC2)[C@H]1OCc1ccccc1 [Compound 49, 8-N-[phenyl 2,4-di-O-benzyl-6-deoxy-6-yl-1-thio-α-D-mannopyranoside]-1,8-diazabicyclo(5.4.0)undec-7-ene-chloride] | – | – |
| > 100 µg/mL | – | – | – | – | O[C@H]1[C@H](OCc2ccccc2)[C@H](OCc2ccccc2)[C@@H](Sc2ccccc2)O[C@@H]1C[N+]1=C2CCCCCN2CCC1 [Compound 50, 8-N-[phenyl 2,3-di-O-benzyl-6-deoxy-6-yl-1-thio-α-D-mannopyranoside]-1,8-diazabicyclo(5.4.0)undec-7-ene-chloride] | – | – |
| > 100 µg/mL | 6.25 to 50 µg/mL | – | – | – | O[C@@H]1[C@H](O)[C@@H](Sc2ccccc2)O[C@H](C[N+]2=C3CCCCCN3CCC2)[C@H]1OCc1ccc2ccccc2c1 [Compound 51, 8-N-[phenyl 6-deoxy-6-yl-4-O-(2′-naphthyl)methyl-1-thio-α-D-mannopyranoside]-1,8-diazabicyclo(5.4.0)undec-7-ene-chloride] | – | – |
| > 100 µg/mL | > 100 µg/mL | > 100 µg/mL | – | – | O=C(O[C@H]1[C@@H](OCc2ccccc2)[C@H](O)[C@@H](C[N+]2=C3CCCCCN3CCC2)O[C@@H]1Sc1ccccc1)c1ccccc1 [Compound 52, 8-N-[phenyl 2-O-benzoyl-3-O-benzyl-6-deoxy-6-yl-1-thio-α-D-mannopyranoside]-1,8-diazabicyclo(5.4.0)undec-7-ene-chloride] | – | – |
| > 100 µg/mL | 6.25 to 50 µg/mL | 6.25 to 50 µg/mL | – | – | O[C@H]1[C@@H](OCc2ccccc2)[C@H](OCc2ccc3ccccc3c2)[C@@H](C[N+]2=C3CCCCCN3CCC2)O[C@@H]1Sc1ccccc1 [Compound 53, 8-N-[phenyl 3-O-benzyl-6-deoxy-6-yl-4-O-(2′-naphthyl)methyl-1-thio-α-D-mannopyranoside]-1,8-diazabicyclo(5.4.0)undec-7-ene-acetate] | – | – |
